Legend:
[1] = target: recombinant human GCN2 protein (Homo sapiens, UniProt Q9P2K8); experiment: General control nonderepressible 2 (GCN2) inhibitory capacity, 33P-ATP filter assay; assay type: biochemical; settings: recombinant human GCN2, 70 uM [gamma-33P-ATP], 40 minutes, room temperature
Method: <Experimental Example 2> Evaluation of General Control Nonderepressible 2 (GCN2) Inhibitory Capacity
(§1) A recombinant human GCN2 protein was mixed with the compound in a reaction solution (20 mM Tris/HCl pH8.5, 0.2 mM EDTA, 0.1% Tween, 100 mM NaCl, 300 μM RSRSRSRSRSRSRSR, 10 mM Magnesium acetate, 70 uM [gamma-33P-ATP]) and reacted at room temperature for 40 minutes. Then, the reaction was terminated by adding phosphoric acid (0.5%) to the reaction mixture, and 10 ul of the reaction solution was dropped onto a P30 filter. The filter was washed four times in a 0.425% phosphoric acid solution for 4 minutes, then washed once more in methanol, dried, and the GCN2 activity was measured by scintillation counting. […] The compound was diluted by 1/3 from the highest concentration of 1 uM and treated with a total of 9 concentrations to evaluate the degree of inhibition.

[2] = target: T1, recombinant human PERK protein (Homo sapiens, UniProt Q9NZJ5); experiment: PKR-like endoplasmic reticulum kinase (PERK) inhibitory capacity, 33P-ATP filter assay; assay type: biochemical; settings: 15 uM [gamma-33P-ATP], 40 minutes, room temperature
T1 sequence (Q9NZJ5 30-1116): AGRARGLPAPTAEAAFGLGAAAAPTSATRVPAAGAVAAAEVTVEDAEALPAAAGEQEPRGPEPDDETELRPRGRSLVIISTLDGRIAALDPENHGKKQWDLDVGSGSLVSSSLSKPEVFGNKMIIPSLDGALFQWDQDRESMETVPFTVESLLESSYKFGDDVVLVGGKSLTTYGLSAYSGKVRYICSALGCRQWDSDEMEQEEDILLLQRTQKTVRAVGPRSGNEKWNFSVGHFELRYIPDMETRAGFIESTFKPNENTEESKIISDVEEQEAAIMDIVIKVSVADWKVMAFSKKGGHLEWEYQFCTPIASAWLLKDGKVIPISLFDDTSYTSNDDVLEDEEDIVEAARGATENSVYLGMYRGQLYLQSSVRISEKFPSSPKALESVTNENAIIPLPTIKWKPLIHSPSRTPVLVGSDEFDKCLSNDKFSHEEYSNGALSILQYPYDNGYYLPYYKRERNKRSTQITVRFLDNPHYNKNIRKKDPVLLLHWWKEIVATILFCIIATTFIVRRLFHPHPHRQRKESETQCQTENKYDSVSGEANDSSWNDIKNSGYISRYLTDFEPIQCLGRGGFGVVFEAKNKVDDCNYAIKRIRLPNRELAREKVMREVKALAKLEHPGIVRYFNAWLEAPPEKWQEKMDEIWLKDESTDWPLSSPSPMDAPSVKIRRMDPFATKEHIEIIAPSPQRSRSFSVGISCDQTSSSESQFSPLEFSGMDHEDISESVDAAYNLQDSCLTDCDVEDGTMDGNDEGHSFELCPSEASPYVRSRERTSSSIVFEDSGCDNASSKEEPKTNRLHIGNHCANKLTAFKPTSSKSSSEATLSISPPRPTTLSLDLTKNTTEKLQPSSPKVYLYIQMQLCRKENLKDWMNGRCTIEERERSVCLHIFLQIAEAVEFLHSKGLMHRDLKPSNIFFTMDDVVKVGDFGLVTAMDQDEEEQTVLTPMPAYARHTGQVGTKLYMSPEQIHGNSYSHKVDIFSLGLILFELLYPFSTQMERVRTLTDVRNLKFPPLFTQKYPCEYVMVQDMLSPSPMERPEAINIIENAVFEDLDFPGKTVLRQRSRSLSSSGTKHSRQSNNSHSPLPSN
Method: <Experimental Example 1> Evaluation of PKR-Like Endoplasmic Reticulum Kinase (PERK) Inhibitory Capacity
as §1, with “PERK” for “GCN2”, “(8” for “(20”, “MOPS pH 7.0,” for “Tris/HCl pH8.5,”, “EDTA,” for “EDTA, 0.1% Tween, 100 mM NaCl,”, “uM” for “μM”, “15” for “70”

Chain of recombinant human GCN2 protein (Q9P2K8 whole entry): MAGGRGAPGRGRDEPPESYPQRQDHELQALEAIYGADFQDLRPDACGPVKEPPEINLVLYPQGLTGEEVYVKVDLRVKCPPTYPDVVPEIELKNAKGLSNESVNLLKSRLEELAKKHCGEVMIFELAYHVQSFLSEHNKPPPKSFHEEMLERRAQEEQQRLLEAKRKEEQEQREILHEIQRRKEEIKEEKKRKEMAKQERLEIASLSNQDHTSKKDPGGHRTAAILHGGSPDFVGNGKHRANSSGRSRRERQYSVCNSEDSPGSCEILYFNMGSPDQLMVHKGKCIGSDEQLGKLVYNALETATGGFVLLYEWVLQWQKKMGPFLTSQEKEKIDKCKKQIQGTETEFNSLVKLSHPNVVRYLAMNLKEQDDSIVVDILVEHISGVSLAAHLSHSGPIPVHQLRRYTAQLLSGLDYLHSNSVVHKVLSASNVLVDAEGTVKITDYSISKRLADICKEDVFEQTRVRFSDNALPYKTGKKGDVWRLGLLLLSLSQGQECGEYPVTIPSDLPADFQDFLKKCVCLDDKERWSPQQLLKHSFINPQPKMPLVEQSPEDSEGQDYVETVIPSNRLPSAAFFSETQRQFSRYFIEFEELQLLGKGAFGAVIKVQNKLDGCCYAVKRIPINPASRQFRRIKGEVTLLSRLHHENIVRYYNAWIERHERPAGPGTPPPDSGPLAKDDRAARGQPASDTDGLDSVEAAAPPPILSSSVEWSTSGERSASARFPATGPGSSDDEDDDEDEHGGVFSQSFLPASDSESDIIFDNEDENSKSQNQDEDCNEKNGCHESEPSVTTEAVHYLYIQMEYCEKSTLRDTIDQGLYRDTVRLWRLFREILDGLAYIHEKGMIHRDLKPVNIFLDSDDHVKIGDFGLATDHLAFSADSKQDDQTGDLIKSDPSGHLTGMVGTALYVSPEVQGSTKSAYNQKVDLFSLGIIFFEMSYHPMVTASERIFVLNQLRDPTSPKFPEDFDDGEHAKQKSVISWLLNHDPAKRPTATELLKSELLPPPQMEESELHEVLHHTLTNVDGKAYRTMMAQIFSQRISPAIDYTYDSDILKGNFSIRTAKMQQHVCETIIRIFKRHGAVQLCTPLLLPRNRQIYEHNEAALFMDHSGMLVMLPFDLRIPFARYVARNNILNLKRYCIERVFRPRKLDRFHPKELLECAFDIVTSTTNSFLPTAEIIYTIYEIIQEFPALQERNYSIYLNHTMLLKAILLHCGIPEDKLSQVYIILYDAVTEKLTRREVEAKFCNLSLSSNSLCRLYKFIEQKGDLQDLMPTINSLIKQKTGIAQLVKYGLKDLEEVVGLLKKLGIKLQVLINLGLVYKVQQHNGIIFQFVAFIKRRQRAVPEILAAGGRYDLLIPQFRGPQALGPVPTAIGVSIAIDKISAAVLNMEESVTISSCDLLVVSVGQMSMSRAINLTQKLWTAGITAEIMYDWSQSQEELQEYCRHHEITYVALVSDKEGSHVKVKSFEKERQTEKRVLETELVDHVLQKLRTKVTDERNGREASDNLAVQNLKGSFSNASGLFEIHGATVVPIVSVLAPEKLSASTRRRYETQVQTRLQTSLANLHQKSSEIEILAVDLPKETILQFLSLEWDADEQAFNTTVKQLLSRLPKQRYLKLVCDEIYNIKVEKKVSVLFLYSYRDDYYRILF

Row | IC50 [1] [µM] | IC50 [2] [µM] | Compound
1 | 0.1 to 0.3 | 0.3 to 1 | Cc1nn(C)c(C(F)(F)F)c1S(=O)(=O)Nc1ccc(F)c(-c2cc3cnc(N)nc3n(C)c2=O)c1F [Example 1, N-(3-(2-amino-8-methyl-7-oxo-7,8-dihydropyrido[2,3-d]pyrimidin-6-yl)-2,4-difluorophenyl)-1,3-dimethyl-5-(trifluoromethyl)-1H-pyrazole-4-sulfonamide]
2 | > 1 | 0.3 to 1 | Cc1nn(C)c(Cl)c1S(=O)(=O)Nc1ccc(F)c(-c2cc3cnc(N)nc3n(C)c2=O)c1F [Example 2, N-(3-(2-amino-8-methyl-7-oxo-7,8-dihydropyrido[2,3-d]pyrimidin-6-yl)-2,4-difluorophenyl)-5-chloro-1,3-dimethyl-1H-pyrazole-4-sulfonamide]
3 | 0.3 to 1 | > 1 | Cc1nn(C)c(C)c1S(=O)(=O)Nc1ccc(F)c(-c2cc3cnc(N)nc3n(C)c2=O)c1F [Example 3, N-(3-(2-amino-8-methyl-7-oxo-7,8-dihydropyrido[2,3-d]pyrimidin-6-yl)-2,4-difluorophenyl)-1,3,5-trimethyl-1H-pyrazole-4-sulfonamide]
4 | > 1 | < 0.1 | COc1ncc(Cl)cc1S(=O)(=O)Nc1ccc(F)c(-c2cc3cnc(N)nc3n(C)c2=O)c1F [Example 4, N-(3-(2-amino-8-methyl-7-oxo-7,8-dihydropyrido[2,3-d]pyrimidin-6-yl)-2,4-difluorophenyl)-5-chloro-2-methoxypyridine-3-sulfonamide]
5 | > 1 | > 1 | Cc1n[nH]c(C)c1S(=O)(=O)Nc1ccc(F)c(-c2cc3cnc(N)nc3n(C)c2=O)c1F [Example 5, N-(3-(2-amino-8-methyl-7-oxo-7,8-dihydropyrido[2,3-d]pyrimidin-6-yl)-2,4-difluorophenyl)-3,5-dimethyl-1H-pyrazole-4-sulfonamide]
6 | > 1 | > 1 | Cn1c(=O)c(-c2c(F)ccc(NS(=O)(=O)c3ccc(Cl)nc3)c2F)cc2cnc(N)nc21 [Example 6, N-(3-(2-amino-8-methyl-7-oxo-7,8-dihydropyrido[2,3-d]pyrimidin-6-yl)-2,4-difluorophenyl)-6-chloropyridine-3-sulfonamide]
7 | 0.1 to 0.3 | < 0.1 | Cn1ccc2c(S(=O)(=O)Nc3ccc(F)c(-c4cc5cnc(N)nc5n(C)c4=O)c3F)cccc21 [Example 7, N-(3-(2-amino-8-methyl-7-oxo-7,8-dihydropyrido[2,3-d]pyrimidin-6-yl)-2,4-difluorophenyl)-1-methyl-1H-indole-4-sulfonamide]
8 | > 1 | > 1 | Cc1nn(C(F)F)c(C)c1S(=O)(=O)Nc1ccc(F)c(-c2cc3cnc(N)nc3n(C)c2=O)c1F [Example 8, N-(3-(2-amino-8-methyl-7-oxo-7,8-dihydropyrido[2,3-d]pyrimidin-6-yl)-2,4-difluorophenyl)-1-(difluoromethyl)-3,5-dimethyl-1H-pyrazole-4-sulfonamide]
9 | 0.3 to 1 | > 1 | Cc1c(S(=O)(=O)Nc2ccc(F)c(-c3cc4cnc(N)nc4n(C)c3=O)c2F)c(Cl)nn1C [Example 9, N-(3-(2-amino-8-methyl-7-oxo-7,8-dihydropyrido[2,3-d]pyrimidin-6-yl)-2,4-difluorophenyl)-3-chloro-1,5-dimethyl-1H-pyrazole-4-sulfonamide]
10 | > 1 | > 1 | Cc1c(S(=O)(=O)Nc2ccc(F)c(-c3cc4cnc(N)nc4n(C)c3=O)c2F)c(CO)nn1C [Example 10, N-(3-(2-amino-8-methyl-7-oxo-7,8-dihydropyrido[2,3-d]pyrimidin-6-yl)-2,4-difluorophenyl)-3-(hydroxymethyl)-1,5-dimethyl-1H-pyrazole-4-sulfonamide]
11 | 0.1 to 0.3 | 0.1 to 0.3 | Cn1c(=O)c(-c2c(F)ccc(NS(=O)(=O)c3cccnc3Cl)c2F)cc2cnc(N)nc21 [Example 11, N-(3-(2-amino-8-methyl-7-oxo-7,8-dihydropyrido[2,3-d]pyrimidin-6-yl)-2,4-difluorophenyl)-2-chloropyridine-3-sulfonamide]
12 | 0.1 to 0.3 | < 0.1 | Cn1c(=O)c(-c2c(F)ccc(NS(=O)(=O)c3cc(F)ccc3F)c2F)cc2cnc(N)nc21 [Example 12, N-(3-(2-amino-8-methyl-7-oxo-7,8-dihydropyrido[2,3-d]pyrimidin-6-yl)-2,4-difluorophenyl)-2,5-difluorobenzene sulfonamide]
13 | 0.1 to 0.3 | 0.3 to 1 | Cc1noc(C)c1S(=O)(=O)Nc1ccc(F)c(-c2cc3cnc(N)nc3n(C)c2=O)c1F [Example 13, N-(3-(2-amino-8-methyl-7-oxo-7,8-dihydropyrido[2,3-d]pyrimidin-6-yl)-2,4-difluorophenyl)-3,5-dimethylisoxazole-4-sulfonamide]
14 | < 0.1 | < 0.1 | Cn1c(=O)c(-c2c(F)ccc(NS(=O)(=O)c3cc(Cl)ccc3Cl)c2F)cc2cnc(N)nc21 [Example 14, N-(3-(2-amino-8-methyl-7-oxo-7,8-dihydropyrido[2,3-d]pyrimidin-6-yl)-2,4-difluorophenyl)-2,5-dichlorobenzenesulfonamide]
15 | 0.3 to 1 | 0.1 to 0.3 | Cn1c(=O)c(-c2c(F)ccc(NS(=O)(=O)c3c(Cl)nc4sccn34)c2F)cc2cnc(N)nc21 [Example 15, N-(3-(2-amino-8-methyl-7-oxo-7,8-dihydropyrido[2,3-d]pyrimidin-6-yl)-2,4-difluorophenyl)-6-chloroimidazo[2,1-b]thiazole-5-sulfonamide]
16 | 0.1 to 0.3 | < 0.1 | Cn1c(=O)c(-c2c(F)ccc(NS(=O)(=O)c3cccc4ccccc34)c2F)cc2cnc(N)nc21 [Example 16, N-(3-(2-amino-8-methyl-7-oxo-7,8-dihydropyrido[2,3-d]pyrimidin-6-yl)-2,4-difluorophenyl)naphthalene-1-sulfonamide]
17 | 0.3 to 1 | 0.1 to 0.3 | Cn1cc(S(=O)(=O)Nc2ccc(F)c(-c3cc4cnc(N)nc4n(C)c3=O)c2F)c(C(F)(F)F)n1 [Example 17, N-(3-(2-amino-8-methyl-7-oxo-7,8-dihydropyrido[2,3-d]pyrimidin-6-yl)-2,4-difluorophenyl)-1-methyl-3-(trifluoromethyl)-1H-pyrazole-4-sulfonamide]
18 | 0.1 to 0.3 | < 0.1 | Cn1c(=O)c(-c2c(F)ccc(NS(=O)(=O)c3cc(C(F)(F)F)ccc3Cl)c2F)cc2cnc(N)nc21 [Example 18, N-(3-(2-amino-8-methyl-7-oxo-7,8-dihydropyrido[2,3-d]pyrimidin-6-yl)-2,4-difluorophenyl)-2-chloro-5-(trifluoromethyl)benzenesulfonamide]
19 | < 0.1 | < 0.1 | Cn1c(=O)c(-c2c(F)ccc(NS(=O)(=O)c3ccc(Cl)s3)c2F)cc2cnc(N)nc21 [Example 19, N-(3-(2-amino-8-methyl-7-oxo-7,8-dihydropyrido[2,3-d]pyrimidin-6-yl)-2,4-difluorophenyl)-5-chlorothiophene-2-sulfonamide]
20 | 0.1 to 0.3 | > 1 | CNc1ncc2cc(-c3c(F)ccc(NS(=O)(=O)c4cc(Cl)ccc4Cl)c3F)c(=O)n(C)c2n1 [Example 20, 2,5-dichloro-N-(2,4-difluoro-3-(8-methyl-2-(methylamino)-7-oxo-7,8-dihydropyrido[2,3-d]pyrimidin-6-yl)phenyl)benzenesulfonamide]

Source: patent US20260184706A1, “PHENYLSULFONAMIDE DERIVATIVES, PREPARATION METHOD THEREFOR, AND PHARMACEUTICAL COMPOSITION FOR PREVENTION OR TREATMENT OF CANCER CONTAINING SAME AS ACTIVE INGREDIENT” (Korea Research Institute of Chemical Technology, priority 2022, published 2026)
